These results are taken from ChEMBL document CHEMBL1201862, “PubChem BioAssay data set” (2004).

Each structure is given as a SMILES string.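 Where inhibition never reached the appropriate level, the endpoint shown equals the highest concentration tested. Otherwise, values were interpolated linearly from a five-concentration, 48-hour dose response in 96-well plates. GI50 is the concentration that inhibits growth by half.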 The source made the active and inactive calls. Cut-off read from the data, not from the text of the source: active = GI50 up to about 1.1 µM and inactive = higher. Where only a bound is given, the exact number is not on record here.

Some test systems named below: COLO 205; 786-0; SF-268; MDA-MB-435; SK-OV-3; MDA-MB-231; RXF 393; UACC-62; NCI-H23; OVCAR-8; HOP-92; KM12; Hs-578T; OVCAR-5; M14; IGROV-1; CCRF-CEM; TK-10; HCT-15; U-251.
Assay in all cases: DTP human tumour cell line panel, 48 h

A word on the GI50: it is the concentration at which growth is held to half of that of the control.

For the compound `O=C1C=C(Nc2cccnc2)c2ccccc2C1=O`, the GI50 with COLO 205 is 21.6 µM (inactive); in the experiment with 786-0, 8.95 µM (inactive); with SF-268, 7.91 µM (inactive); in the experiment on MDA-MB-435 it was 0.348 µM (active); in the experiment on SK-OV-3 it was 8.71 µM (inactive); in the experiment on MDA-MB-231 it was 4.61 µM (inactive). Moreover, the GI50 in the experiment with RXF 393 was 13.1 µM (inactive); with UACC-62 it was 1.68 µM (inactive); in the experiment on NCI-H23, 2.8 µM (inactive); with OVCAR-8, 7.55 µM (inactive); in the experiment on HOP-92, 16.1 µM (inactive); in the experiment with KM12, 4.03 µM (inactive). Besides, the GI50 in the experiment with Hs-578T was 2.4 µM (inactive); with OVCAR-5, 8.13 µM (inactive); in the experiment with M14 it was 1.91 µM (inactive); with IGROV-1, 7.73 µM (inactive); in the experiment on CCRF-CEM it was 15.2 µM (inactive); in the experiment with TK-10 it was 19.1 µM (inactive). The values for the GI50 in the experiment with HCT-15 and in the experiment with U-251 were 4.31 µM and 9.25 µM (inactive), respectively.

For `CC1(C)N=c2c(ncn2CCCO)=C(C(N)=O)N1`, the GI50 in the experiment on COLO 205, in the experiment on 786-0, in the experiment with SF-268, in the experiment with MDA-MB-435, with SK-OV-3 and with MDA-MB-231 was > 100 µM (inactive) throughout. In addition, the GI50 in the experiment on RXF 393, in the experiment with UACC-62, in the experiment on NCI-H23, in the experiment on OVCAR-8, in the experiment with HOP-92 and in the experiment with KM12 was > 100 µM (inactive) each time. Moreover, the GI50 in the experiment on Hs-578T, in the experiment with OVCAR-5, in the experiment with M14, with IGROV-1, with CCRF-CEM and in the experiment on TK-10 was > 100 µM (inactive) throughout. The concentration for 50% growth inhibition (GI50) in the experiment on HCT-15 was above 100 µM; with U-251, > 100 µM (inactive).

As for `C/C(=N/NC(=S)N1CC2CCC(CC2)C1)c1cnccn1`, the GI50 in the experiment on COLO 205 is < 0.01 µM (active); in the experiment with 786-0, < 0.01 µM (active); in the experiment with SF-268, < 0.01 µM (active); in the experiment on MDA-MB-435 it was 0.243 µM (active); in the experiment on SK-OV-3, < 0.01 µM (active); with MDA-MB-231 it was < 0.01 µM (active). In addition, the GI50 is 0.541 µM (active) in the experiment with RXF 393; < 0.023 µM (active) with UACC-62; < 0.01 µM (active) in the experiment with NCI-H23; < 0.01 µM (active) in the experiment on OVCAR-8; 0.619 µM (active) with HOP-92; 2.42 µM (inactive) in the experiment on Hs-578T. The GI50 in the experiment on OVCAR-5 was 0.255 µM (active); in the experiment with M14, < 0.0104 µM (active); in the experiment with IGROV-1, < 0.01 µM (active); in the experiment with CCRF-CEM, < 0.01 µM (active); with TK-10, 0.67 µM (active); in the experiment with HCT-15, below 0.01 µM. In the experiment with U-251, the GI50 was < 0.01 µM (active).

As for `COc1cc(/C=C2/SC(c3ccccc3)N(c3ccccc3Cl)C2=O)cc(OC)c1OC` (stereo not given), the GI50 with COLO 205 is 23.3 µM (inactive); in the experiment with 786-0, 25.9 µM (inactive); with SF-268, 41.1 µM (inactive); in the experiment with MDA-MB-435, 27.2 µM (inactive); with SK-OV-3, 19.8 µM (inactive); with MDA-MB-231 it was 58.3 µM (inactive). For the same compound, the GI50 was 20.7 µM (inactive) in the experiment with RXF 393; 37.9 µM (inactive) in the experiment on UACC-62; 22.8 µM (inactive) in the experiment with NCI-H23; 35.2 µM (inactive) in the experiment on OVCAR-8; 26.1 µM (inactive) with HOP-92; 26.8 µM (inactive) with KM12. The GI50 was 30 µM (inactive) in the experiment on Hs-578T; 69.5 µM (inactive) with OVCAR-5; 30.1 µM (inactive) in the experiment on M14; 12.2 µM (inactive) in the experiment on CCRF-CEM; 69.5 µM (inactive) in the experiment on TK-10; 31.6 µM in the experiment with HCT-15. The GI50 in the experiment with U-251 was 23.1 µM (inactive).

Consider `COC(=O)c1c2c(cc3c1CC1(Cc4ccccc4C1=O)C3)CCC2` (stereo not given), for which the GI50 was 3.52 µM (inactive) in the experiment with COLO 205; 25.2 µM (inactive) in the experiment with 786-0; 48.8 µM (inactive) in the experiment on SF-268; 13.5 µM (inactive) in the experiment on MDA-MB-435; > 100 µM (inactive) in the experiment on SK-OV-3; 21.4 µM (inactive) with MDA-MB-231. The GI50 in the experiment on RXF 393 is 19.5 µM (inactive); with NCI-H23, 38.8 µM (inactive); in the experiment with OVCAR-8, 44.1 µM (inactive); with HOP-92, 23 µM (inactive); with KM12, 25.5 µM (inactive); in the experiment with Hs-578T, 50 µM (inactive). Also, the GI50 with OVCAR-5 is > 100 µM (inactive); in the experiment on M14, 31.3 µM (inactive); in the experiment with IGROV-1 it was 26.6 µM (inactive); in the experiment on CCRF-CEM, 28.2 µM (inactive); in the experiment with TK-10 it was 51.3 µM (inactive); in the experiment with HCT-15, 21.4 µM. Also, the GI50 in the experiment with U-251 is 56.5 µM (inactive).

In the case of `CCc1nc(N)nc(N)c1-c1ccc(NCCc2ccccc2)c([N+](=O)[O-])c1`, the GI50 was 1.11 µM (active) with COLO 205; 0.211 µM (active) in the experiment on 786-0; 0.527 µM (active) in the experiment with SF-268; 0.389 µM (active) in the experiment with MDA-MB-435; 16.5 µM (inactive) in the experiment on SK-OV-3; 8.65 µM (inactive) in the experiment on MDA-MB-231. Also, the GI50 in the experiment on RXF 393 was 3.55 µM (inactive); in the experiment with UACC-62 it was 0.162 µM (active); with NCI-H23, 0.392 µM (active); with OVCAR-8, 0.394 µM (active); in the experiment on HOP-92, 2.21 µM (inactive); with KM12 it was 1.33 µM (inactive). Moreover, the GI50 in the experiment on Hs-578T was 9.66 µM (inactive); in the experiment with OVCAR-5 it was 17.2 µM (inactive); with M14, 0.276 µM (active); with IGROV-1 it was 0.394 µM (active); in the experiment with CCRF-CEM, 0.297 µM (active); in the experiment with TK-10, 13.3 µM (inactive). For the same compound, the GI50 with HCT-15 is 0.108 µM; in the experiment with U-251, 0.364 µM (active).

Regarding `O=C1C(Cl)=C(NCCN2CCOCC2)C(=O)c2ncccc21`, the GI50 in the experiment with 786-0 is 1.44 µM (inactive); in the experiment with SF-268 it was 1.99 µM (inactive); in the experiment with MDA-MB-435, 0.195 µM (active); with SK-OV-3, 1.95 µM (inactive); in the experiment with MDA-MB-231 it was 2.08 µM (inactive); in the experiment on RXF 393, 1.95 µM (inactive). The GI50 is 1.33 µM (inactive) with UACC-62; 1.62 µM (inactive) in the experiment with NCI-H23; 1.53 µM (inactive) in the experiment on OVCAR-8; 2.25 µM (inactive) in the experiment with HOP-92; 1.73 µM (inactive) in the experiment with KM12; 2.11 µM (inactive) with Hs-578T. The GI50 is 2.15 µM (inactive) in the experiment on OVCAR-5; 1.61 µM (inactive) in the experiment with M14; 1.97 µM (inactive) in the experiment on IGROV-1; 0.394 µM (active) in the experiment with CCRF-CEM; 1.96 µM (inactive) in the experiment on TK-10; 1.91 µM with HCT-15. Besides, the GI50 in the experiment on U-251 is 1.66 µM (inactive).

In the case of `CCOC(=O)C1(C#N)C(=O)c2cc[n+](CC[n+]3ccc4c(c3)C(=O)C(C#N)(C(=O)OCC)C4=O)cc2C1=O` (stereo not given), the GI50 was > 10 µM (inactive) with COLO 205; > 100 µM (inactive) in the experiment with 786-0; 96.8 µM (inactive) in the experiment on SF-268; > 100 µM (inactive) with MDA-MB-435; > 100 µM (inactive) with SK-OV-3; 60.5 µM (inactive) with MDA-MB-231. Also, the GI50 with RXF 393, with UACC-62, with NCI-H23, in the experiment on OVCAR-8, in the experiment on HOP-92 and in the experiment on KM12 was > 100 µM (inactive) each time. Moreover, the GI50 in the experiment with Hs-578T was > 100 µM (inactive); in the experiment with OVCAR-5 it was > 100 µM (inactive); in the experiment on M14 it was > 100 µM (inactive); with IGROV-1 it was > 100 µM (inactive); in the experiment with CCRF-CEM it was > 100 µM (inactive); in the experiment with HCT-15, above 100 µM. Also, the GI50 in the experiment with U-251 is > 100 µM (inactive).
